Results reported in ChEMBL document CHEMBL5303304, “EUbOPEN Chemogenomics Library - IncuCyte” (2023).

Key:
Format in all cases: toxicity, cell-based
HEK-293T = test: Incucyte cell viability with HEK293T; details: human, 10 µM, compound concentration 10 uM
Fibroblast = test: Incucyte cell viability with human fibroblast; details: 10 µM, compound concentration 10 uM
U2OS = test: Incucyte cell viability with U2OS; details: human, 10 µM, compound concentration 10 uM
Note: unitless GR value; below 1 slowed growth and below 0 cell loss.

SMILES	Growth Rate (HEK-293T; 6 h, replicate number 1)	Growth Rate (HEK-293T; 6 h, replicate number 2)	Growth Rate (HEK-293T; 12 h, replicate number 1)	Growth Rate (HEK-293T; 12 h, replicate number 2)	Growth Rate (HEK-293T; 18 h, replicate number 1)	Growth Rate (HEK-293T; 18 h, replicate number 2)	Growth Rate (HEK-293T; 24 h, replicate number 1)	Growth Rate (HEK-293T; 24 h, replicate number 2)	Growth Rate (Fibroblast; 6 h, replicate number 2)	Growth Rate (U2OS; 0 h, replicate number 2)	Growth Rate (U2OS; 6 h, replicate number 1)	Growth Rate (U2OS; 12 h, replicate number 2)	Growth Rate (U2OS; 18 h, replicate number 2)	Growth Rate (U2OS; 24 h, replicate number 2)	Growth Rate (Fibroblast; 6 h, replicate number 1)	Growth Rate (Fibroblast; 12 h, replicate number 2)	Growth Rate (Fibroblast; 18 h, replicate number 2)	Growth Rate (Fibroblast; 24 h, replicate number 2)	Growth Rate (U2OS; 12 h, replicate number 1)	Growth Rate (U2OS; 24 h, replicate number 1)	further results
CN1CCC[C@H]1c1cccnc1 [NICOTINE]	0.4	0.38	0.64	0.75	0.99	0.76	0.93	0.85	-0.93	-1	0.16	0.66	0.77	0.86							Growth Rate (HEK-293T; 0 h, replicate number 1): 0.69; Growth Rate (Fibroblast; 0 h, replicate number 2): -0.9; Growth Rate (U2OS; 0 h, replicate number 1): -0.33; Growth Rate (U2OS; 6 h, replicate number 2): 0.24
Cc1cn(CCN2CCN(c3ccccc3-c3cc(C#N)cc(C(=O)NCCCN4CCCC4)c3)CC2)c2ccccc12	-0.62	-0.59	-0.46	-0.49	-0.45	-0.47	-0.38	-0.39	-0.91	-0.98	-0.93	-0.84	-0.77	-0.74	-0.88	-0.87	-0.81	-0.71	-0.85	-0.72	Growth Rate (HEK-293T; 0 h, replicate number 2): -1; Growth Rate (Fibroblast; 12 h, replicate number 1): -0.74; Growth Rate (Fibroblast; 18 h, replicate number 1): -0.68; Growth Rate (Fibroblast; 24 h, replicate number 1): -0.66; Growth Rate (U2OS; 0 h, replicate number 1): -1; Growth Rate (U2OS; 6 h, replicate number 2): -0.89; Growth Rate (U2OS; 18 h, replicate number 1): -0.75
CN(C)C/C=C/C(=O)Nc1cccc(C(=O)Nc2ccc(Nc3nccc(-c4cccnc4)n3)cc2)c1	-0.88	-0.56	-0.9	-0.52	-0.74	-0.44	-0.55	-0.37	0.47			0.74	0.42	0.13	-1	-0.34	-0.31	-0.26	0.85	0.27	Growth Rate (HEK-293T; 0 h, replicate number 2): 0.56; Growth Rate (Fibroblast; 0 h, replicate number 2): 0.35; Growth Rate (U2OS; 0 h, replicate number 1): -0.34; Growth Rate (U2OS; 18 h, replicate number 1): 0.46
CN1CC[C@@]23CCCC[C@@H]2[C@@H]1Cc1ccc(O)cc13.O=C(O)C(O)C(O)C(=O)O									-0.93	-0.41						-0.3	0.13	0.19			Growth Rate (HEK-293T; 0 h, replicate number 1): 0.54; Growth Rate (HEK-293T; 0 h, replicate number 2): 0.37; Growth Rate (Fibroblast; 0 h, replicate number 1): 0.67; Growth Rate (Fibroblast; 12 h, replicate number 1): -0.94; Growth Rate (Fibroblast; 18 h, replicate number 1): 0.72
O=C(O)c1ccc(OCCCc2ccc(OCCCCOC3CCCCC3)cc2)c(C(=O)NC2CCCC(C(=O)O)C2)c1 (stereo not given)	0.96		0.94			0.94		0.92	-0.02							0.19	0.41	0.73		0.89	Growth Rate (HEK-293T; 0 h, replicate number 1): -0.01
CC(=O)O[C@H]1C(=O)[C@@]2(C)[C@H]([C@H](OC(=O)c3ccccc3)[C@]3(O)C[C@H](OC(=O)[C@H](O)[C@@H](NC(=O)c4ccccc4)c4ccccc4)C(C)=C1C3(C)C)[C@]1(OC(C)=O)CO[C@@H]1C[C@@H]2O [PACLITAXEL]	-0.33	-0.69	-0.21	-0.41	-0.08	-0.22	0.05	-0.02	-0.99	-0.23	-0.32	-0.45	-0.43	-0.18	-0.64	-0.57	-0.67	-0.34	-0.21	-0.07	Growth Rate (Fibroblast; 0 h, replicate number 1): -1; Growth Rate (Fibroblast; 12 h, replicate number 1): -0.7; Growth Rate (Fibroblast; 18 h, replicate number 1): -0.54; Growth Rate (Fibroblast; 24 h, replicate number 1): -0.39; Growth Rate (U2OS; 0 h, replicate number 1): -0.26; Growth Rate (U2OS; 6 h, replicate number 2): -0.43; Growth Rate (U2OS; 18 h, replicate number 1): -0.26
Nc1ncnc2c1c(COc1cccc(Cl)c1)nn2C1CCOCC1	0.75	0.59		0.61	0.83	0.5	0.79	0.37	0.47		0.51				0.82	0.6	0.74	0.92	0.63	0.83	Growth Rate (Fibroblast; 0 h, replicate number 2): -0.61; Growth Rate (Fibroblast; 12 h, replicate number 1): 0.9; Growth Rate (U2OS; 18 h, replicate number 1): 0.81
CN1C(=O)c2ccccc2N(C)c2nc(Nc3cnn(C4CCNCC4)c3)ncc21	-0.59	-0.85	-0.25	-0.41	0.19	-0.15	0.37	0.07		0.12	-0.35	0.18	0.23	0.24		0.94	0.43	0.43	0.07	0.15	Growth Rate (Fibroblast; 0 h, replicate number 1): -0.99; Growth Rate (Fibroblast; 0 h, replicate number 2): -0.07; Growth Rate (U2OS; 6 h, replicate number 2): 0.15; Growth Rate (U2OS; 18 h, replicate number 1): 0.07
CO[C@H]1C[C@@H]2CC[C@@H](C)[C@@](O)(O2)C(=O)C(=O)N2CCCC[C@H]2C(=O)O[C@H]([C@H](C)C[C@@H]2CC[C@@H](O)[C@H](OC)C2)CC(=O)[C@H](C)/C=C(\C)[C@@H](O)[C@@H](OC)C(=O)[C@H](C)C[C@H](C)/C=C/C=C/C=C/1C [SIROLIMUS]	-0.13	0.36	-0.06	0.13	0.16	0.23	0.26	0.3		0.94		0.81			0.43	0.93	0.97	0.84	0.93	0.94	Growth Rate (HEK-293T; 0 h, replicate number 1): -0.78; Growth Rate (HEK-293T; 0 h, replicate number 2): -0.17; Growth Rate (Fibroblast; 12 h, replicate number 1): 0.47; Growth Rate (Fibroblast; 18 h, replicate number 1): 0.23; Growth Rate (Fibroblast; 24 h, replicate number 1): 0.35
